Assay [1] has as its target T1, E. coli Lgt (Escherichia coli, UniProt P60955).
T1 construct: DNA encoding full-length E. coli Lgt fused to a C-terminal Flag tag; Flag (C); made in house; host or cells: E. coli Rosetta 2(DE3) Gold cells (Agilent)
Put plainly: biochemical. The following applies: 3 nM Lgt-DDM, 50 μM phosphatidylglycerol, 12.5 μM Pal-IAAC, 50 mM Tris (pH 8), 0.02% DDM, 60 min at RT; luminescence; at least two independent experiments in triplicates; read-out: IC50, inhibition of Lgt biochemical activity.

The test system of assay [2] is PA14 imp4213. The experiment in a line: microbe, parasite or virus in culture. Format: cell-based, P. aeruginosa. The following applies: average of two independent experiments in duplicates. On the procedure:
Bacterial strains and plasmids used in this study are listed in Table S1 in the supplemental material. E. coli strain CFT073 (ATCC 700928) ([62]) and MG1655 (ATCC 700926) were purchased from ATCC. Gene disruption in CFT073 was performed as previously described ([17], [63]). CFT073 Δlgt and MG1655 ΔlspA were generated using λ Red recombination ([17], [63]). Plasmids pKD46 for the λ Red recombinase ([17], [63]), pKD4 or pSim18 for the integration construction ([17], [63]), and pCP20 ([64]) for the FLP recombinase were used in this study. The 3′ primers (Table S2) used to generate the integration construct from pKD4 contain a juxtaposed ribosome binding site downstream of the kanamycin (Kan) cassette to allow for the creation of nonpolar gene deletions within operons ([63]), which is critical when generating the lgt inducible deletion strain given that the ribosomal binding site of the thyA gene downstream of lgt is within the lgt coding region. The inducible deletion strains (MG1655 Δlgt and MG1655 ΔlolCDE) in either the WT and/or Δlpp backgrounds were generated using similar methods as previously described ([17], [65]). To delete lpp in the lgt, lspA, and lolCDE inducible deletion strains, the Kan cassette was removed by transforming the FLP recombinase-expressing pCP20 plasmid followed by deletion of the lpp gene using λ Red recombinase as discussed above. Similar protocols were used to introduce the imp4213 mutant allele. The PA14 imp4213 strain was generated based on published protocols ([66][–][68]). Briefly, the lptD imp4213 mutant allele was generated by PCR amplifying PA14 genomic DNA using primer pairs PA14imp4213_up-F/PA14imp4213_up-R (upstream region) and PA14imp4213_dn-F/PA14imp4213_dn-R (downstream region) to create lptD missing amino acids 425 to 447. PCR products were combined with the PCR-amplified vector pEX18gm with primers pLMG18_GA-F/pLMG18_GA-R and assembled using Gibson assembly (NEB). The resultant suicide vector pEX18gm was confirmed by sequence analysis (ELIM Biopharm). […]
Unless stated otherwise, E. coli cells were grown in Luria-Bertani (LB) medium (0.5% yeast extract, 1% tryptone, 0.5% NaCl) at 37°C. […] Growth of MG1655 inducible deletion strains was measured by culturing in the presence of 2-fold dilutions of arabinose (starting arabinose concentrations for CFT073 and MG1655 inducible deletion strains were 4% and 0.8%, respectively). While 2% arabinose was sufficient for WT growth of MG1655 Δlgt, 4% arabinose was used for CFT073 Δlgt based on comparing its growth to that of WT CFT073 as measured by CFU. OD600 growth measurements were performed using an EnVision 2101 multilabel reader plate reader (PerkinElmer) linked with Echo liquid handler (Labcyte). […]

Assay [3] relates to CFT073 imp4213 Δlpp. The experiment in a line: Time-kill, CFT073 imp4213 versus CFT073 imp4213 Δlpp. The assay is classed as cell-based, E. coli. The settings on record: 12.5 μM G2824, 3.2 μM globomycin or 1.6 μM vancomycin, CFU, two independent experiments in triplicates. On the procedure: To compare the rate of bactericidal killing of G2824 with that of globomycin, we treated CFT073 imp4213 and CFT073 imp4213 Δlpp cells with G2824 and globomycin at 2× MIC of the respective inhibitors against CFT073 imp4213 and enumerated viable CFU counts.
Unless stated otherwise, E. coli cells were grown in Luria-Bertani (LB) medium (0.5% yeast extract, 1% tryptone, 0.5% NaCl) at 37°C. Where indicated, kanamycin (Kan) was added to culture media at a 50-μg/ml final concentration. MIC assays were performed based on Clinical and Laboratory Standards Institute (CLSI) guidelines. […] Growth of MG1655 inducible deletion strains was measured by culturing in the presence of 2-fold dilutions of arabinose (starting arabinose concentrations for CFT073 and MG1655 inducible deletion strains were 4% and 0.8%, respectively). While 2% arabinose was sufficient for WT growth of MG1655 Δlgt, 4% arabinose was used for CFT073 Δlgt based on comparing its growth to that of WT CFT073 as measured by CFU. OD600 growth measurements were performed using an EnVision 2101 multilabel reader plate reader (PerkinElmer) linked with Echo liquid handler (Labcyte). […] Bacterial viability at different time points during the treatment was measured by enumerating CFU. […]

The values below come from article PMC8316002, “Inhibition of Escherichia coli Lipoprotein Diacylglyceryl Transferase Is Insensitive to Resistance Caused by Deletion of Braun’s Lipoprotein” (Journal of Bacteriology, 2021).

Structures are written as SMILES. Where a SMILES comes first, the peptide text is derived from it. Bridges are numbered along the chain shown (N, C = ends). [ ]: non-standard residue; d: D form. Bip = N[C@@H](Cc1ccc(-c2ccccc2)cc1)C(=O)O; NMeF = CN[C@@H](Cc1ccccc1)C(=O)O

T1 sequence (P60955 whole entry, the tested form may be a part): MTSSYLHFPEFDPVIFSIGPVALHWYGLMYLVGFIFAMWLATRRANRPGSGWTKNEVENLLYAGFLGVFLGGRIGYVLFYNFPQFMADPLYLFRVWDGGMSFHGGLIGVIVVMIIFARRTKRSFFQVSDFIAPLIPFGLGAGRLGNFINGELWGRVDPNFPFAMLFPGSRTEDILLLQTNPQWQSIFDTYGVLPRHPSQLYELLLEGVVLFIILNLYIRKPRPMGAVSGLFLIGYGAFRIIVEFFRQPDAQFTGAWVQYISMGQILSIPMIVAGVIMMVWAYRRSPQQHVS

Turning to `CN1C(=O)[C@H](Cc2ccc(-c3ccccc3)cc2)NC(=O)CNC(=O)[C@H](CC(=O)O)NC(=O)[C@@H](Cc2ccccc2)NC(=O)CSC[C@@H](C(=O)NCC(=O)N[C@@H](CCCCN)C(=O)N[C@@H](CCCCN)C(N)=O)NC(=O)[C@H](CCCNC(=N)N)NC(=O)[C@H](CO)NC(=O)[C@H](Cc2ccc(-c3ccccc3)cc2)NC(=O)[C@@H]1Cc1ccccc1` [G2824] ({CH2CO}-[dF]DG[Bip][NMeF][Bip]SRCGKK-NH2; thioether N-9), the IC50 in assay [1] was 180 nM. In addition, the MIC in assay [2] was 6.3 µM.
Turning to `CN1C(=O)[C@H](Cc2ccc(-c3ccccc3)cc2)NC(=O)CNC(=O)[C@H](CCCNC(=N)N)NC(=O)[C@@H](Cc2ccccc2)NC(=O)CSC[C@@H](C(=O)NCC(N)=O)NC(=O)[C@H](CCCNC(=N)N)NC(=O)[C@H](CO)NC(=O)[C@H](Cc2ccc(-c3ccccc3)cc2)NC(=O)[C@@H]1Cc1ccccc1` [G9066] ({CH2CO}-[dF]RG[Bip][NMeF][Bip]SRCG-NH2; thioether N-9), the IC50 in assay [1] came out at 240 nM. For the same molecule, the MIC in assay [2] is listed as 6.3 µM.
With `CCCCCC[C@H]1OC(=O)CNC(=O)[C@H]([C@H](C)O)NC(=O)[C@H](CO)NC(=O)[C@H]([C@H](C)CC)NC(=O)[C@H](CC(C)C)N(C)C(=O)[C@@H]1C` [Globomycin], in assay [3], the “effect of lpp deletion on bactericidal killing” value was “lost in the absence of lpp”. The MIC in assay [2] is recorded as 50 µM.
On to `CN[C@H](CC(C)C)C(=O)N[C@H]1C(=O)N[C@@H](CC(N)=O)C(=O)N[C@H]2C(=O)N[C@H]3C(=O)N[C@H](C(=O)N[C@H](C(=O)O)c4cc(O)cc(O)c4-c4cc3ccc4O)[C@H](O)c3ccc(c(Cl)c3)Oc3cc2cc(c3O[C@@H]2O[C@H](CO)[C@@H](O)[C@H](O)[C@H]2O[C@H]2C[C@](C)(N)[C@H](O)[C@H](C)O2)Oc2ccc(cc2Cl)[C@H]1O` [Vancomycin], for which the “effect of lpp deletion on bactericidal killing” value in assay [3] is “equivalent killing of CFT073 imp4213 and CFT073 imp4213 Δlpp at 5 h posttreatment”. Further, the MIC in assay [2] (Pseudomonas aeruginosa) amounted to 12.5 µM.
